# Reference: patent US20230119141A1, “USES OF TAXIFOLIN FOR R[…]” (PHYTO TECH CORP., priority 2021, published 2023)
# Test system: SARS-CoV-2
# Assay: SARS-CoV-2 infection in Golden Syrian hamsters, viral loads in swabs and organs
# Type: in vivo
# Method: The therapeutic efficacy of taxifolin against SARS-CoV-2 infection was examined in Golden Syrian hamsters, a small animal model that most closely recapitulates clinical and pathological features of COVID-19 in humans. See, e.g., Imai, M, et al., Proc. Nat. Acad. Sci. 117(28):16587-16595 (2020); Reagan-Shaw, S., et al., FASEB J. 22:659-661 (2007). […] Animals in the taxifolin group (n=15) received prophylactic treatment of taxifolin (66.7 mg/kg) through oral gavage (OG) before the viral infection.
# After SARS-CoV-2 inoculation, animals in the taxifolin group were orally given taxifolin (66.7 mg/kg) at days 1, 3, and 5. Animals in the control group (n=10) received an equal amount of PBS through oral gavage. At day 7, certain animals in the taxifolin (n=6) group and control group (n=5) were sacrificed, and the viral loads in major organs were tested.
compound,measurement,setting,value
"O=C1c2c(O)cc(O)cc2OC(c2ccc(O)c(O)c2)C1O (stereo not shown) [taxifolin, 2-(3,4-dihydroxyphenyl)-3,5,7-trihydroxychroman-4-one]",viral load in nasal swabs,"day 5 after infection, taxifolin 66.7 mg/kg oral gavage prophylactic and at days 1, 3, 5, n=8, control ~3×10^6",~7×10^4 RNA copies/100 μL
same,viral loads in oral swabs vs control,"day 7, taxifolin 66.7 mg/kg oral gavage",decreased the viral loads in oral swabs
same,viral loads in the trachea vs control,"day 7, taxifolin 66.7 mg/kg oral gavage, n=4 per group",clearly reduced the viral loads in the trachea
same,viral loads in nasal swabs vs control,"days 3 and 5 after viral infection, taxifolin 66.7 mg/kg oral gavage",significantly lowered the viral loads in nasal swabs
